The numbers were not newly measured in patent US20200375975A1, “Treatment of Renal Cell Carcinoma with Lenvatinib and Everolimus” (Eisai R&D Management Co., Ltd., priority 2016, published 2020), which cites them from elsewhere.

The test system of one series is rats. Particulars: rat, in vivo, po; cited from earlier work.
Another series concerns rabbits. The note with it: rabbit, in vivo, po; cited from earlier work.

Structures are written as SMILES.

As for `COc1cc2nccc(Oc3ccc(NC(=O)NC4CC4)c(Cl)c3)c2cc1C(N)=O` [lenvatinib, 4-(3-chloro-4(cyclopropylaminocarbonyl)aminophenoxy)-7-methoxy-6-quinolinecarboxamide], the embryofetal toxicity findings result with rats is “embryotoxicity, fetotoxicity, and teratogenicity”; with rabbits it was “embryotoxicity, fetotoxicity, and teratogenicity”.
